Assay results from US9572788B2, “Cell permeable inhibitors of anaphase promoting complex” (President and Fellows of Harvard College, priority 2014, dated 2017).
Peptide text beside a SMILES is read from it. * marks the point of attachment. Cbz = O=C(OCc1ccccc1)*

Assays:
Type in all cases: cell-based, human
[1] = tested on: HeLa H2B-GFP cells; assay: Live cell imaging of mitotic duration and cell fate
Procedure: Detailed siRNA transfection and drug treatment schemes are described in supplemental experimental procedures. HeLa H2B-GFP cells were plated in DMEM with 10% FBS at 20% confluence. […] Live cell imaging was performed at 12 minute intervals on a Nikon TE2000E PFS inverted microscope fitted with an incubation chamber maintained at 37° C. and supplied with 5% CO2. Cell division was tracked by manual inspection of movies, and mitotic duration was measured as the time between the first frame of chromosome condensation and the frame of chromosome segregation (anaphase), decondensation (mitotic exit without anaphase) or cell death (chromosomes shrinking to a small bright dot).
The imaging plate was mounted onto a motorized stage (Prior ProScan II) on a Nikon TE2000E PFS inverted microscope fitted with an incubation chamber maintained at 37° C. and supplied with 5% CO2. A 20× Plan Apo 0.75 NA or 40× Plan Fluor 0.75 NA objective lens was used as indicated and images were collected with 2×2 binning. […] TIFF files of each image were exported from Elements and used to build stacks and Quicktime movies with Metamorph imaging software (Molecular Devices). For manual analysis, mitotic duration is counted as the time between the first frame of chromosome condensation and the frame of chromosome segregation (anaphase) or decondensation (mitotic exit in the presence of nocodazole) or cell death (chromosomes shrinking to a small bright dot).
HeLa H2B-GFP cells were plated in a 24-well plate in DMEM 10% FBS at 20% confluence one day prior to experiment and synchronized by double thymidine block as described above. […] Live cell imaging was set up as described above.
HeLa H2B-GFP cells were plated in a 24-well plate in DMEM+10% FBS at 20% confluence one day prior to the experiment and synchronized by double thymidine block as described above. The cells were released from the first thymidine block into 200 μl OptiMem without FBS. Transfection was performed immediately after the first thymidine release. […] The two mixtures were left at room temperature for 5 min before being mixed together and incubated for additional 20 min and then added to the cells to a final volume of 250 μl. 4 h after transfection, 250 μl of DMEM+20% FBS were added to cells.
HeLa H2B-GFP cells were plated in glass-bottom 24-well plates at 20% confluence one day prior to the experiment and synchronized by double thymidine block as described above. […] Cells were treated with 100 nM Hesperadin or DMSO 8 h after release from the second thymidine block and live cell imaging was set up as described above.
HeLa H2B-GFP cells were plated in a 24-well plate in DMEM+10% FBS at 20% confluence one day prior to experiment and synchronized by double thymidine block as synchronized above. […] Live cell imaging was set up as described above.
HeLa H2B-GFP cells were plated in a 24-well plate in DMEM+10% FBS at 20% confluence one day prior to experiment and synchronized by double thymidine block as described above. […] Untreated cells were used as the control. Live cell imaging was set up as described above. […] Alternatively, at 10 h after release from the second block, 10 μM MG132 with or without 25 μg/ml cycloheximide was added to the cells. […] Live cell imaging was set up as described above.
HeLa H2B-GFP cells were plated in a 24-well plate in DMEM+10% FBS at 20% confluence one day prior to experiment and synchronized by double thymidine block as described above. Mad2 siRNA transfection was performed as described above. At 10 h after release from the second block, 10 μM MG132 with or without 25 μg/ml cycloheximide was added to the cells. Live cell imaging was set up as described above. Manual analysis was focused only on cells that entered mitosis after MG132 addition.
Live cell imaging experiments. […] Nocodazole, taxol, proTAME, cyclinal and hesperadin were added to cells at 8 h after release. MG132 was added to cells at 10 h after release to allow mitotic entry.

[2] = tested on: HeLa H2B-GFP cells; assay: Chromosome congression analysis
Procedure: HeLa H2B-GFP cells were plated in 35 mm glass-bottom dishes (MatTek) in DMEM+10% FBS at 20% confluence one day prior to the experiment and synchronized by double thymidine block as described above. Drugs were added as follows to a final volume of 3 ml from 2× concentrated preparation in culture medium. DMSO (0.06%), proTAME (3 and 12 μM) or 10 nM Nocodazole were added 8 h after release from the second block, while MG132 (10 μM) was added at 10 h. H2B-GFP was imaged for 4 hrs every 3 min at 40× magnification as described above.

[3] = tested on: HeLa cells; assay: Immunofluorescence of mitotic spindle and interkinetochore distance; conditions: asynchronous HeLa, 2 h; 12 μM proTAME; nocodazole or taxol
Procedure: HeLa cells grown in DMEM+10% FBS were plated on 25 mm glass coverslips in a E-well dish at a density of 130,000/ml×3 ml 48 h prior to treatment. They were then treated with 0.06% DMSO, 12 μM proTAME, 300 nM nocodazole or 300 nM taxol for 2 h. The cells were washed twice with PBS and fixed with 3% paraformaldehyde for 15 min. The cells were then washed with PBS and permeabilized with PBS plus 0.5% Triton X-100 for 2 min. The cells were then washed with PBS and blocked with PBS plus 5% FBS for 1 h. CREST antisera diluted 1:50 into PBS was added to the cells and incubated at room temperature for 1 h. The cells were washed with PBS and incubated with 1:1000 anti-human-Alexa 568 (Invitrogen, A21090) and 1:100 anti-α-tubulin-FITC for 1 h. The cells were then washed with PBS and the nuclei were stained with 1 μg/ml Hoechst 33342. The cover slips were mounted in 0.1M N-propylgallate in 9:1 glycerol:PBS. Z-series images were taken on a Nikon TE2000 microscope with PerkinElmer spinning disk confocal device. Maximal Z-projection images of individual cells were made by Image J. To measure interkinetochore distances, a straight line was drawn across a kinetochore pair in the same confocal plane and pixel intensities along the line were plotted so that each kinetochore would be represented by a peak on the line. The interkinetochore distance was calculated as the distance between the peaks. Fifty-five kinetochore pairs from 5 cells treated with DMSO or proTAME were measured and the p-value was calculated with a paired student test.

[4] = Fig 6C, compounds 8 h after release, 12 μM proTAME, 300 nM nocodazole, 150 nM taxol, 100 nM hesperadin
[5] = Fig 6D, Cdc27 siRNA, 100 nM hesperadin
[6] = Fig 6D, UbcH10 siRNA, 100 nM hesperadin
[7] = Fig 6D, control siRNA, 100 nM hesperadin
[8] = Fig S4C, proTAME 12 μM, MG132 10 μM, nocodazole 10 nM
[9] = Fig 7A, control siRNA, 3 μM MG132
[10] = Fig 7B, MG132 3 μM, 100 nM hesperadin, 12 μM proTAME
[11] = Fig 7D, MG132 10 μM, 100 nM hesperadin, 12 μM proTAME
[12] = Fig 8B, MAD2 siRNA, MG132 10 μM ± 25 μg/ml cycloheximide
[13] = Fig 8B, control siRNA, MG132 10 μM ± 25 μg/ml cycloheximide
[14] = Fig 8A, 12 μM proTAME, 300 nM nocodazole or 150 nM taxol, ± 25 μg/ml cycloheximide 4 h later

SMILES: CCS(=O)(=O)Nc1ccc2c(c1)/C(=C(/Nc1ccc(CN3CCCCC3)cc1)c1ccccc1)C(=O)N2 [Hesperadin, reference compound]
- Average mitotic duration [1, 4]: 98.7 min
- Median mitotic duration [1, 4]: 96 min
- Average mitotic duration [1, 5]: 131.8 min
- Median mitotic duration [1, 5]: 132 min
- Average mitotic duration [1, 6]: 115.8 min
- Median mitotic duration [1, 6]: 108 min
- Average mitotic duration [1, 7]: 115.6 min
- Median mitotic duration [1, 7]: 120 min
- Mitotic duration in the presence of taxol ([1]; co-treated with taxol): ~2 h

SMILES: CC(C)C[C@@H](C=O)NC(=O)[C@H](CC(C)C)NC(=O)[C@H](CC(C)C)NC(=O)OCc1ccccc1 [MG132, reference compound] (Cbz-Leu-Leu-Leu-aldehyde)
- Delay in chromosome congression ([2]; 3 μM proTAME or 10 μM MG132): caused no delay in chromosome congression
- Average chromosome congression time [2, 8]: 21.6 min
- Median chromosome congression time [2, 8]: 21 min
- Median duration of mitotic arrest ([1]; 3 μM): 15 h
- Cells that exited mitosis ([1]; 3 μM, 30 h experiment): 10%
- Cells that exited mitosis ([1]; 3 μM, cells depleted of Mad2 by RNAi): 50%
- Response of arrested cells to roscovitine ([1]; 100 μM roscovitine at 12 h after release): showed complete resistance to roscovitine
- Average mitotic duration ([1]; Fig 7A, MAD2 siRNA, 3 μM MG132): 605.3 min
- Median mitotic duration ([1]; Fig 7A, MAD2 siRNA, 3 μM MG132): 667.5 min
- Average mitotic duration [1, 9]: 830.1 min
- Median mitotic duration [1, 9]: 840 min
- Average mitotic duration [1, 10]: 1549.9 min
- Median mitotic duration [1, 10]: 1440 min
- Average mitotic duration [1, 11]: 2169.8 min
- Median mitotic duration [1, 11]: 2172 min
- Average mitotic duration [1, 12]: 1755.2 min
- Median mitotic duration [1, 12]: 1716 min
- Average mitotic duration [1, 13]: 1715.1 min
- Median mitotic duration [1, 13]: 1614 min
- Time normal-appearing metaphase plate maintained ([1]; MG132 alone): over 5 h
- Median mitotic delay/arrest ([1]; synchronized, drugs 10 hrs after release, proTAME 3 μM, low-dose MG132): 276 min

SMILES: CC(=O)O[C@H]1C(=O)[C@@]2(C)[C@H]([C@H](OC(=O)c3ccccc3)[C@]3(O)C[C@H](OC(=O)[C@H](O)[C@@H](NC(=O)c4ccccc4)c4ccccc4)C(C)=C1C3(C)C)[C@]1(OC(C)=O)CO[C@@H]1C[C@@H]2O [Taxol, reference compound]
- Average mitotic duration [1, 4]: 1946.9 min
- Median mitotic duration [1, 4]: 2070 min
- Average mitotic duration [1, 14]: 1557.6 min
- Median mitotic duration [1, 14]: 1602 min
- Median mitotic duration ([1]; unsynchronized HeLa H2B-GFP, taxol 10 nM, proTAME 3 μM, control 60 min): 414 min
- Effect on mitotic spindle [3]: strongly perturbed spindle organization
